# Measured values as given in patent US20220401423A1, “METHODS FOR TREATING INFLAMMATORY BOWEL DISEASE” (Angion Biomedica Corp., priority 2019, published 2022).
# Tests used:
# [1] = system: Acetic acid-induced colitis; assay: Acetic acid (AA) induced colitis mouse model; type: in vivo
# Description: Acetic acid-induced colitis is a common experimental animal model for IBD. Animals treated with acetic acid develop many pathological and histopathological characteristics in common with human ulcerative colitis. Rectal administration of acetic acid damages the mucosal epithelium and induces ulcerative colitis. The severity of the mucosal lesions that develop in acetic acid-induced colitis depends on the acetic acid concentration and the length of exposure. For example, injection of 25% acetic acid (AA) into the gastric lumen causes larger ulcerative lesions than injection of 5% acetic acid. Different concentrations of acetic acid and different exposure times have been reported to induce IBD in a rat model. Transmural necrosis in all layers of the bowel wall, severe neutrophil infiltration of the intestinal tissue, goblet cell depletion, edema, and submucosal ulceration are common manifestations of this model. Bloody diarrhea, reduction of the intestinal mucus, decreased nucleic acid (DNA and RNA) and total protein content, and increased colon weight and vascular permeability have also been observed. […] Acetic acid-induced colitis is also associated with changes NF-κB, inhibitor of κB (IκB) and IκB kinase expression.
# Male CD-1 mice were infused with 4% AA in saline in 150 μL volume through rectal enema under isoflurane anesthesia. A sham group (n=6) received an equivalent volume of saline.
# The remaining AA-treated mice (n=9 for each group) were then randomized to vehicle and/or Compound 1 treatment at 50 mg/kg, PO, BID for 3 days.
# [2] = system: TNBS-induced colitis; assay: TNBS-induced IBD/acute colitis mouse model, dose response (Example 3); type: in vivo
# Description: Intracolonic administration of TNBS (2,4,6-trinitrobenzenesulfonic acid)/ethanol induces a severe illness characterized by bloody diarrhea and a dramatic loss of body weight during the first week with increased colon damage score (Mateus, V., et al. Clin. Exp. Gastroenterol. 2018; 11:325-334). TNBS-induced colitis, characteristic of acute colitis and the early phase of IBD, is a commonly utilized animal model in rodents that shares significant properties with human Crohn's disease. Advantages of this model include reproducibility and technical simplicity (Filipescu, I. E., et al. PLoS One 2018 Aug. 23; 13(8):e0202929). The use of TNBS-induced colitis has been valuable in elucidating the mechanisms that mediate disease immune-pathogenesis. TNBS-induced colitis is a well-validated animal model to assess compounds with potential therapeutic effects such as anti-TNFα, corticosteroids, natural compounds and traditional medicine (Mateus 2018; Filipescu 2018; Wirtz, S. et al. Nat. Protoc. 2017 July; 12(7):1295-1309). Compound 1 was therefore tested in the well-established model of TNBS-induced IBD/Acute Colitis.
# In this IBD model, 2,4,6-trinitrobenzenesulfonic acid (TNBS) was used to induce disease. The inflammatory bowel disease (IBD)/acute colitis model was conducted in male CD-1 mice, body weights 30-35 grams, from Charles River Laboratories (CRL). After receipt from the vendor, animals were acclimatized to the animal facility at least 5 days following the animal facility standard operating procedures. All animals were fed the normal chow diet, had access to water ad libitum and housed in a single room of the animal facility with a 12:12 hr light-dark cycle and independent ventilation, temperature and humidity control.
# Compound 1 was dissolved in distilled water at 0.9 mg/mL, 2.7 mg/mL and 8.1 mg/mL, and 200 μL was administered via oral gavage into each mouse.
# Male CD-1 mice were starved overnight. Then, mice (n=33) were infused with […] (2 mg/mouse) in 50% ethanol in a 100 μL volume via rectal enema under isoflurane anesthesia. A sham group (n=6) received an equal volume of 50% ethanol. […] Remaining Sham (n=4) and TNBS mice (n=7/group) were randomized to vehicle or Compound 1 treatment at 5 mg/kg, 15 mg/kg, and 45 mg/kg, PO, BID for 4 days.
# After 4 days of Compound 1 or vehicle treatment, mice were sacrificed. Body weight (FIG. 5), colon length (FIG. 6 and FIG. 8), colon weight (FIG. 7), and gross morphological score/disease severity scores (FIG. 9; normal=0 and severe=4) were recorded. Blood/serum was collected. The mid and distal part of the colon was fixed in 10% neutral buffered formalin and the proximal part of the colon was snap frozen in liquid nitrogen and stored at minus 80° C. until use.
# Histological scoring. After overnight fixation in formalin, tissues were dehydrated (graded alcohols) and cleared (xylene) before being embedded in paraffin wax. Sections of tissue were cut and stained with hematoxylin and eosin (H & E) and scored in a blinded manner (FIG. 10). Histological scoring was based on a semi-quantitative scoring system as published (Lab Invest. 1993 August; 69(2):238-49). The following were ranked: the extent of the destruction of normal mucosal architecture (0, normal; 1, 2, and 3, mild, moderate, and extensive damage, respectively), presence and degree of cellular infiltration (0, normal; 1, 2, and 3, mild, moderate, and transmural infiltration, respectively), extent of muscle thickening (0, normal; 1, 2, and 3, mild, moderate, and extensive thickening, respectively), crypt damage/goblet cell depletion (0, no loss, 1, 2, 3 for mild, moderate and extensive loss of goblet cells respectively (FIG. 11). The scores for each feature were summed with a maximum possible colon injury score of 12 (FIG. 12).
# Alcian Blue/Fast red staining. Formalin fixed, paraffin embedded colon tissue sections were used for Alcian blue staining to evaluate crypt damage/goblet cell loss. […]
# [3] = system: DSS-induced chronic colitis/IBD; assay: DSS-induced chronic colitis/IBD mouse model; type: in vivo; details: 50 mg/kg, PO, BID, started 72 hours after DSS, 4 weeks; for colon length: compared to DSS-vehicle cohort
# Description: DSS is a sulfated polymer that alters tight junction proteins, leading to the disruption of the intestinal barrier, and is toxic to epithelial cells. Results obtained in DSS-induced animal IBD models have helped to understand the pathogenesis of IBD and to screen potential therapeutic agents. DSS-induced IBD is simple and reproducible and results in symptoms resembling those of ulcerative colitis. The development of acute, chronic, or relapsing symptoms of IBD is dose-dependent, and the molecular weight of the DSS is key not only in the induction of colitis but also in the location of induction. […] Various DSS dosage and duration are used to induce IBD in some animal models. Following DSS administration, animals usually develop colitis with weight loss and severe, bloody diarrhea. DSS colitis is characterized by mucosal ulceration, leukocyte infiltration, intestinal crypt distortion and epithelial hyperplasia.
# Adult male CD-1 mice were fed 3% DSS in drinking water for 5 days with alternate cycles of normal drinking water for 5 days and continued a total of 3 DSS cycles in 4 weeks. This model has been established to induce chronic colitis/IBD. Vehicle (n=10/group) or Compound 1 (50 mg/kg, PO, BID) were administered 72 hours after DSS and continued treatment for 4 weeks, then all mice were sacrificed. A small group (n=6) with normal drinking water was included as a sham control. Gross morphological and histopathological end points were evaluated. Additionally, tissue from the middle colon (100 mg) from all groups was subjected to hydroxyproline assay for collagen estimation as a fibrotic end point.
# [4] = system: TNBS-induced colitis; assay: TNBS-induced colitis mouse model, 50 mg/kg (Example 5); type: in vivo
# Method: Using the same TNBS mouse model for IBD as described in Example 3, an experiment was performed with a 50 mg/kg dose of Compound 1, as described below.
# Male CD-1 mice were infused with TNBS (2 mg/mouse) in 45% ethanol and 5% PBS in 150 μL volume through rectal enema under isoflurane anesthesia. A sham group (n=6) received an equal volume of 45% ethanol and PBS mixture.
# Remaining TNBS mice (n=12/group) were randomized to vehicle or Compound 1 at 50 mg/kg, PO, BID for 3 days.
# [5] = system: collagen levels; assay: Antifibrotic activity, collagen levels (FIG. 23); details: model not stated
# [6] = 50 mg/kg, PO, BID for 3 days, started 72 hours after AA, compared to vehicle cohort
# [7] = 15 mg/kg and 45 mg/kg, BID, PO, 4 days, started 3 days after TNBS
# [8] = 15 mg/kg and 45 mg/kg, BID, PO, 4 days, compared to pre-treatment and vehicle treated animals
# [9] = 50 mg/kg, PO, BID for 3 days, started 72 hours after TNBS, compared to vehicle cohort
structure (smiles),measurement,setting,value
"COC(=O)c1ccc2c(n1)NC(=O)/C2=C(\Nc1ccc(N(C)C(=O)CN2CCN(C)CC2)cc1)c1ccccc1 [Compound 1, (Z)-methyl 3-(((4-(N-methyl-2-(4-methylpiperazin-1-yl)acetamido)phenyl)amino)(phenyl)methylene)-2-oxo-2,3-dihydro-1H-pyrrolo[2,3-b]pyridine-6-carboxylate]",decrease in colon length,[1]; [6],significantly mitigated the decrease
same,gross morphological colon damage,[1]; [6],significantly mitigated
same,"histopathological colon damage (mucosal wall thickness, crypt/villi architecture)",[1]; [6],significantly mitigated
same,"AA-induced colitis (colon length, colon gross damage score, histopathological damage score, Alcian blue, H&E staining)",[1]; FIG. 2A-2E,significantly decreased
same,MPO-staining of colon tissue,"[2]; 5 mg/kg and higher, BID, PO, 4 days, versus TNBS+vehicle treated animals",significantly decreased
same,body weight,[2]; [7],significantly restored
same,colon length,[2]; [7],significantly restored
same,colon weight,[2]; [7],significantly restored
same,TNBS-induced goblet cell loss (Alcian Blue staining),[2]; [8],significantly reduced
same,colon histology (H&E histological scoring),[2]; [8],markedly improved
same,Disease Severity Index,"[2]; 15 mg/kg and 45 mg/kg, BID, PO, 4 days, score 0 (normal)-4 (severe)",marked improvement
same,F4/80-staining of colon tissue,"[2]; 15 mg/kg and higher, BID, PO, 4 days, versus TNBS+vehicle treated animals",significantly decreased
same,"IBD symptoms (body weight, colon length, colon weight, disease severity index)",[2]; FIG. 5-9,recover from IBD symptoms
same,"macroscopic colon damage score (appearance, inflammation, rectal bleeding)",[3],decreased
same,"histopathological injury score (crypt damage, epithelial erosion, inflammatory cell infiltration)",[3]; H&E stained colon sections,decreased
same,colon length,[3],significantly increased
same,colon length,[3]; listed as test compound,significantly restored
same,colonic hydroxyproline (HYP),[3]; middle colon tissue,decreased
same,colon architecture (Alcian blue staining for goblet cells of crypt/villi),[4]; [9],preserved
same,colon damage score,[4]; [9],decreased
same,colon histopathological score,[4]; [9],decreased
same,colon length,[4]; [9],restored
same,mortality,[4]; [9],significantly decreased
same,"TNBS-induced increase in serum cytokines (interleukin-1α, TNFα, PDGF)","[4]; 50 mg/kg, PO, BID for 3 days, serum",significantly blocked
same,"IBD symptoms (colon length, colon gross damage score, Alcian blue staining of goblet cells, colon histopathological score)",[4]; FIG. 25A-25F,recover from IBD symptoms
same,survival,"[4]; TNBS induced colitis mortality model, FIG. 3",increased
same,collagen levels (antifibrotic activity),[5],reduced
